Results from ChEMBL document CHEMBL2417415, “Polyketides with New Delhi metallo-β-lactamase 1 inhibitory activity from Penicillium sp” (J Nat Prod, 2013).
Converted amounts (≈) assume the structure as drawn. The source made the active and inactive calls. The calls are words filed in the database; no cut-off is given here.

Key:
[1] = Inhibition of NDM-1 (unknown origin) expressed in Escherichia coli BL21 using meropenem as substrate compound preincubated for 15 min by spectrophotometry
Influenza A virus [2] = assay: Antiviral activity against influenza A virus A/FM/1/47 (H1N1) infected in MDCK cells at 10 uM by Reed and Muench analysis; format: functional, organism-based
KETR3 = assay: Cytotoxicity assay against human Ketr3 cells at 10 uM after 96 hrs by MTT assay; format: functional, cell-based
A549 = assay: Cytotoxicity assay against human A549 cells at 10 uM after 96 hrs by MTT assay; format: functional, cell-based
Bel-7402 = assay: Cytotoxicity assay against human Bel7402 cells at 10 uM after 96 hrs by MTT assay; format: functional, cell-based
Klebsiella pneumoniae [3] = assay: Antibacterial activity against Klebsiella pneumoniae ATCC BAA-2146 at 10 uM after 24 hrs by spectrophotometry; format: functional, organism-based
Coxsackievirus B3 = assay: Antiviral activity against Coxsackievirus B3 at 10 uM; format: functional, organism-based
Influenza A virus [4] = assay: Antiviral activity against influenza A virus A/Hanfang/359/95 (H3N2) infected in MDCK cells at 10 uM by Reed and Muench analysis; format: functional, organism-based
BGC-823 = assay: Cytotoxicity assay against human BGC823 cells at 10 uM after 96 hrs by MTT assay; format: functional, cell-based
MCF7 = assay: Cytotoxicity assay against human MCF7 cells at 10 uM after 96 hrs by MTT assay; format: functional, cell-based
HCT-8 = assay: Cytotoxicity assay against human HCT8 cells at 10 uM after 96 hrs by MTT assay; format: functional, cell-based
Klebsiella pneumoniae [5] = assay: Antibacterial activity against Klebsiella pneumoniae ATCC BAA-2146 at 256 ug/mL after 24 hrs by spectrophotometry; format: functional, organism-based
Klebsiella pneumoniae [6] = assay: Antibacterial activity against Klebsiella pneumoniae ATCC BAA-2146 assessed as reduction in meropenem MIC at 128 ug/mL after 24 hrs by spectrophotometry; format: functional, organism-based
Klebsiella pneumoniae [7] = assay: Antibacterial activity against Klebsiella pneumoniae ATCC BAA-2146 after 24 hrs by spectrophotometry; format: functional; conditions: ATCC BAA-2146, 24 h

Which IC50 [1] does the source give for `C[C@H](CS)C(=O)N1CCC[C@H]1C(=O)O` [CAPTOPRIL] here?
Its IC50 is 108 µM.

Which Activity (Influenza A virus [2]) does the source give for `C[C@H]1C[C@@H](O)[C@@H]2O[C@@H]2[C@H]1O` here?
The Activity was “inactive”.

What about the Activity (KETR3) of the same molecule?
Its Activity is “inactive”.

And the Activity (A549)?
Its Activity is “inactive”.

And the Activity (Bel-7402)?
Its Activity is “inactive”.

And the Activity (Klebsiella pneumoniae [3])?
The Activity was “inactive”.

And the Activity (Coxsackievirus B3)?
Its Activity is “inactive”.

What about the Activity (Influenza A virus [4]) of the same molecule?
Its Activity is “inactive”.

What about the Activity (BGC-823) of the same molecule?
The Activity was “inactive”.

What about the Activity (MCF7) of the same molecule?
The Activity was “inactive”.

And the Activity (HCT-8)?
The Activity was “inactive”.

For `C[C@H](CS)C(=O)N1CCC[C@@H]1C(=O)O` [D-CAPTOPRIL], which IC50 [1] is on record?
Its IC50 is 8 µM.

Which Activity (Klebsiella pneumoniae [5]) does the source give for `CC(=O)C[C@H](O)c1coc2cc(O)cc(C(=O)O)c2c1=O` here?
The Activity was “inactive”.

And the Activity (Influenza A virus [2])?
Its Activity is “inactive”.

And the Activity (Klebsiella pneumoniae [6])?
The Activity was “inactive”.

And the Activity (KETR3)?
Its Activity is “inactive”.

And the Activity (A549)?
Its Activity is “inactive”.

What about the Activity (Bel-7402) of the same molecule?
Its Activity is “inactive”.

And the Activity (Klebsiella pneumoniae [3])?
The Activity was “inactive”.

And the Activity (Coxsackievirus B3)?
Its Activity is “inactive”.

What about the Activity (Influenza A virus [4]) of the same molecule?
The Activity was “inactive”.

And the Activity (BGC-823)?
Its Activity is “inactive”.

What about the Activity (MCF7) of the same molecule?
The Activity was “inactive”.

What about the Activity (HCT-8) of the same molecule?
Its Activity is “inactive”.

What about the IC50 [1] of the same molecule?
The IC50 was 94.9 µM.

Which Activity (Klebsiella pneumoniae [5]) does the source give for `COc1c(O)cc2oc3cc(C)ncc3c(=O)c2c1C(=O)O` here?
Its Activity is “inactive”.

What about the Activity (Influenza A virus [2]) of the same molecule?
The Activity was “inactive”.

And the Activity (Klebsiella pneumoniae [6])?
Its Activity is “inactive”.

What about the Activity (KETR3) of the same molecule?
Its Activity is “inactive”.

And the Activity (A549)?
Its Activity is “inactive”.

And the Activity (Bel-7402)?
Its Activity is “inactive”.

What about the Activity (Klebsiella pneumoniae [3]) of the same molecule?
The Activity was “inactive”.

And the Activity (Coxsackievirus B3)?
The Activity was “inactive”.

What about the Activity (Influenza A virus [4]) of the same molecule?
Its Activity is “inactive”.

And the Activity (BGC-823)?
Its Activity is “inactive”.

What about the Activity (MCF7) of the same molecule?
The Activity was “inactive”.

And the Activity (HCT-8)?
The Activity was “inactive”.

And the IC50 [1]?
Its IC50 is 87.9 µM.

With `O=C(O)C[C@H](NC(=O)c1cc(=O)[nH]c2ccccc12)C(=O)O` as the molecule, how does the Activity (Influenza A virus [2]) read?
The Activity was “inactive”.

What about the Activity (KETR3) of the same molecule?
Its Activity is “inactive”.

What about the Activity (A549) of the same molecule?
Its Activity is “inactive”.

And the Activity (Bel-7402)?
Its Activity is “inactive”.

And the Activity (Klebsiella pneumoniae [3])?
The Activity was “inactive”.

What about the Activity (Coxsackievirus B3) of the same molecule?
Its Activity is “inactive”.

What about the Activity (Influenza A virus [4]) of the same molecule?
Its Activity is “inactive”.

What about the Activity (BGC-823) of the same molecule?
Its Activity is “inactive”.

What about the Activity (MCF7) of the same molecule?
The Activity was “inactive”.

And the Activity (HCT-8)?
Its Activity is “inactive”.

With `O=C(O)CN(CCN(CC(=O)O)CC(=O)O)CC(=O)O` [EDETIC ACID] as the molecule, how does the IC50 [1] read?
The IC50 was < 0.1 µM.

For `C[C@@H](O)[C@H]1C(=O)N2C(C(=O)O)=C(S[C@@H]3CN[C@H](C(=O)N(C)C)C3)[C@H](C)[C@H]12` [MEROPENEM], which MIC (Klebsiella pneumoniae [7]) is on record?
The MIC was 128 mg/L (≈ 334 µM).
